Results on 14 molecules are retold here after patent US11446298B2, “Pyrimidine derivatives” (Idorsia Pharmaceuticals Ltd, priority 2017, dated 2022).

What all share (type): cell-based
One test addresses T1, EP4 (Homo sapiens, UniProt P35408).
T1 construct: BT549 breast cancer cells, express high endogenous EP4 levels and very low EP2 levels; host or cells: BT549 breast cancer cells
In words: hEP4 cAMP Assay (BT549 breast cancer cells, HTRF cAMP, PGE2 6 nM). The following applies: antagonistic activity, PGE2 6 nM (EC80). Here is the method:
(§1) The antagonistic activities of the compounds of formula (I) on the EP2 and EP4 receptors are also determined in accordance with the following experimental method.
(§2) Human tumor cell lines expressing endogenously either EP4 or EP2 are used and cAMP accumulation in cells upon PGE2 stimulation is monitored. SF295 glioblastoma cells express high endogenous EP2 and no EP4, whereas BT549 breast cancer cells, express high endogenous EP4 levels and very low EP2 levels.
(§3) As a detection method for cAMP the HTRF (homogeneous time resolved fluorescence) Cisbio kit (HTRF cAMP dynamic 2 kit 20′000 tests Cisbio Cat. #62AM4PEC) was used, which is based on a competitive immunoassay using a Cryptate-labeled anti-cAMP antibody and d2-labeled cAMP. Native cAMP produced by cells or unlabeled cAMP (for the standard curve) compete with exogenously added d2-labeled cAMP (acceptor) for binding to monoclonal anti-cAMP-Eu3+Cryptate (donor). A FRET signal (Fluorescence Resonance Energy Transfer) is obtained only if the labeled anti-cAMP antibody binds the d2 labelled cAMP, thus the specific signal (i.e. energy transfer) is inversely proportional to the concentration of cAMP in the standard or sample.
The BT549 cells (NCI/No. 0507282) are detached from culture dishes with a cell dissociation buffer (Invitrogen, 13151-014), and collected in growing medium (GM: RPMI1640 (Invitrogen 21875)/10% FCS, 1% Penicilin/streptomycin). Cells are counted washed and resuspended in assay buffer (AB; HBSS, 20 mM HEPES, 0.2% BSA; 2 mM IBMX). 4′000 cells in 5 μL of AB are seeded per well of a small volume 384 well plate (black with flat bottom, Greiner 784076).
(§4) Stock solutions of test compounds are made at a concentration of 10 mM in DMSO, and serially diluted in DMSO to concentrations required for inhibition dose response curves (tested concentration range 30 μM-0.4 nM; 30 μM-0.015 nM or 1 μM-0.01 nM).
PGE2 (Cayman 14010, stock solution: 6 uM in DMSO) is used as agonist at 6 nM final concentration, corresponding to EC80.
2.5 μL of diluted compounds are transferred into the assay plate. Plate is pre-incubated 45 minutes at room temperature. Subsequently, 2.5 μL of PGE2 (final conc. 6 nM) are transferred into the assay plate. Plate is incubated 30 minutes at room temperature. 5 μL of each donor (anti-cAMP cryptate) and acceptor (cAMP-d2) are added and the plate is incubated another hour at room temperature in the dark and then read using a BMG LABTECH PHERAstar reader (Excitation: 337 nm, Emission: 620 and 665 nm).
(§5) The obtained Delta F (fluorescence) values (665 nm/620 nM) are converted into % cAMP values using the measurements of the cAMP calibrator provided in the kit. For each compound concentration the percentage of cAMP compared to DMSO control value as average ±STDEV (each concentration is measured in duplicate) is calculated.
(§6) IC50 values and curves are generated with XLfit software (IDBS) using Dose-Response One Site model 203. When compounds were measured multiple times, mean values are given.
For orientation: TR-FRET usually uses a lanthanide donor and a delayed reading to cut background.

In the next test the target is T2, EP2 (Homo sapiens, UniProt P43116).
T2 construct: SF295 glioblastoma cells express high endogenous EP2 and no EP4; host or cells: SF295 glioblastoma cells
In words: hEP2 cAMP Assay (SF295 glioblastoma cells, HTRF cAMP, PGE2 75 nM). The following applies: antagonistic activity, PGE2 75 nM (EC80). Here is the method: as §1, §2, §3
The SF295 cells (NCI/No. 0503170) are detached from culture dishes with a cell dissociation buffer (Invitrogen, 13151-014), and collected in growing medium (GM: RPM11640 (Invitrogen 21875)/10% FCS, 1% Penicilin/streptomycin). Cells are counted washed and resuspended in assay buffer (AB; HBSS, 20 mM HEPES, 0.2% BSA; 2 mM IBMX). 4′000 cells in 5 μL of AB are seeded per well of a small volume 384 well plate (black with flat bottom, Greiner 784076).
as §4
PGE2 (Cayman 14010, stock solution: 75 μM in DMSO) is used as agonist at 75 nM final concentration, corresponding to EC80.
2.5 μL of diluted compounds are transferred into the assay plate. Plate is pre-incubated 45 minutes at room temperature. Subsequently, 2.5 μL of PGE2 (final conc. 75 nM) are transferred into the assay plate. Plate is incubated 30 minutes at room temperature. Five μL of each donor (anti-cAMP cryptate) and acceptor (cAMP-d2) are added and the plate is incubated another hour at room temperature in the dark and then read using a BMG LABTECH PHERAstar reader (Excitation: 337 nm, Emission: 620 and 665 nm).
as §5, §6

Another test has as its target T3, PTGER2 (EP2) (Homo sapiens, UniProt P43116).
T3 construct: host or cells: HEK 293 (PathHunter, stably transfected)
In words: hEP2 b-Arrestin Assay (PathHunter HEK 293 PTGER2 b-arrestin cells, PGE2 5 μM). The note with it: antagonistic activity, beta-arrestin assay, HEK 293 PTGER2 cells, PGE2 5 μM (EC80); read-out: hEP2 b-arr IC50. Here is the method: as §1
The assay is using the PathHunter™ HEK 293 PTGER2 and PTGER4 b-arrestin cell lines from DiscoverX. The system is based on the Enzyme Fragment Complementation Technology. Two complementing fragments of the b-galactosidase enzyme are expressed within stably transfected cells. The larger portion of b-gal, termed EA for Enzyme Acceptor, is fused to the C-terminus of b-arrestin 2. The smaller fragment, termed ProLink™ tag, is fused to PTGER2 (EP2) or PTRGER4 (EP4) at the C-terminus. Upon activation, b-arrestin is recruited which forces the interaction of ProLink and EA, allowing complementation of the two fragments of b-gal and the formation of a functional enzyme which is capable of hydrolysing the substrate and generating a chemiluminescent signal.
The HEK 293 PTGER2 b-arrestin cells (DiscoverX 93-021-4C1) are detached from culture dishes with a cell dissociation buffer (Invitrogen, 13151-014), and collected in growing medium (GM: DMEM+Glutamax-I (Invitrogen 32430)/10% FCS, 1% Penicilin/streptomycin). 5000 cells per well of a 384 well plate (white with white bottom Greiner 781080) are seeded in 20 μl per well of GM. Plate is incubated at 37° C., 5% CO2 for 24 hours.
Stock solutions of test compounds are made at a concentration of 10 mM in DMSO, and serially diluted in DMSO to concentrations required for inhibition dose response curves (tested concentration range 10 μM-2 nM or 1 μM-0.2 nM).
PGE2 (Cayman 14010, stock solution: 10 mM in DMSO) is used as agonist at 5 μM final concentration, corresponding to EC80.
Five microliters of diluted compounds are transferred into the assay plate. Plate is pre-incubated 15 minutes at 37° C. Then five microliters of PGE2 (final conc. 5 μM) are transferred into the assay plate. Plate is incubated 120 minutes at 37° C.
PathHunter Glo Detection Kit components are thawed and mix according to manufacturer's instructions: 1 part Galacton Star Substrate with 5 parts Emerald II™ Solution, and 19 parts of PathHunter Cell Assay Buffer, respectively. Twelve μl of reagent are transferred to the assay plate and incubate for 1 hour at room temperature in the dark. Luminescence counts are read on a BMG Fluostar Optima reader according to manufacturer's instructions.
For each compound concentration calculate of the percentage of activity compared to DMSO control value as average ±STDEV. (each concentration is measured in duplicate)
as §6

T1 sequence (P35408 whole entry): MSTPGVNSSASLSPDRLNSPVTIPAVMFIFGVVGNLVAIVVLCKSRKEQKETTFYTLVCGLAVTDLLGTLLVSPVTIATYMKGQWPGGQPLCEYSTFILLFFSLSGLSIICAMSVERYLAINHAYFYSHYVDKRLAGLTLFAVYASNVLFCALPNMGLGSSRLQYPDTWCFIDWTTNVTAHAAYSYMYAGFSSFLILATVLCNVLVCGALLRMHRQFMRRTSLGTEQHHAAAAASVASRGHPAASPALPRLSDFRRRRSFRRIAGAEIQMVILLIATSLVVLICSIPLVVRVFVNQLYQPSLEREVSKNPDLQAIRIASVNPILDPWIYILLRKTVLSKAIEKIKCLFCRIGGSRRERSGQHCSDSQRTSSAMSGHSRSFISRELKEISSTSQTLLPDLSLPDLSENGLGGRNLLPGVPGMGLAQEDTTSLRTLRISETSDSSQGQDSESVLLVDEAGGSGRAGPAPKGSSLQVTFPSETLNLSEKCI
T2 sequence (P43116 whole entry): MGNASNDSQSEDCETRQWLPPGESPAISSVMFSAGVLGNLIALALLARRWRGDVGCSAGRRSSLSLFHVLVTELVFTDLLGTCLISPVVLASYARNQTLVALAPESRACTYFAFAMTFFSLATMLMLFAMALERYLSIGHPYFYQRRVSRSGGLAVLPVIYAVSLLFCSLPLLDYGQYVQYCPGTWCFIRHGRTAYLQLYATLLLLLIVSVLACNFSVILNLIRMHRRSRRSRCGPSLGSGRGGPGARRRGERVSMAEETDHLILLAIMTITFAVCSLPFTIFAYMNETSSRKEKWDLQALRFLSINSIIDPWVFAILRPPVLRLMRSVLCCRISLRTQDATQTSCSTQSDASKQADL
T3 sequence (P43116 whole entry): as above

What is called IC50 is the concentration needed to halve the response being measured. As for `CCOc1cc(-c2cc(NCCc3cccc4c3ccn4C)ncn2)ccc1OCC(=O)O` [Example 49, (2-Ethoxy-4-{6-[2-(1-methyl-1H-indol-4-yl)-ethylamino]-pyrimidin-4-yl}-phenoxy)-acetic acid], the IC50 at EP4 amounted to 458 nM; on EP2 it was 160 nM; on PTGER2 (EP2), 108 nM.
For `CCOc1cc(-c2cc(NCCc3cccc4cc(C)n(C)c34)ncn2)sc1C(=O)O` [Example 56, 5-{6-[2-(1,2-Dimethyl-1H-indol-7-yl)-ethylamino]-pyrimidin-4-yl}-3-ethoxy-thiophene-2-carboxylic acid], in that order: 292 nM, 52 nM and 53 nM.
On the same counts, the results for `O=C(O)c1ccc(-c2cc(NCCc3ccc(Cl)c4ccccc34)ncn2)cc1OC1CCC1` [Example 61, 4-{6-[2-(4-Chloro-naphthalen-1-yl)-ethylamino]-pyrimidin-4-yl}-2-cyclobutoxy-benzoic acid] are 745 nM, 183 nM and 113 nM.
As to `CCOc1cc(-c2cc(NCCc3ccc(Cl)c4ccccc34)ncn2)ccc1OCC(=O)O` [Example 63, (4-{6-[2-(4-Chloro-naphthalen-1-yl)-ethylamino]-pyrimidin-4-yl}-2-ethoxy-phenoxy)-acetic acid], the IC50 was 300 nM at EP4, 239 nM against EP2 and 99 nM at PTGER2 (EP2).
As to `COc1ccc2ncccc2c1CCNc1cc(-c2ccc(C(=O)O)c(OC3CCC3)c2)ncn1` [Example 64, 2-Cyclobutoxy-4-{6-[2-(6-methoxy-quinolin-5-yl)-ethylamino]-pyrimidin-4-yl}-benzoic acid], the IC50 at EP4 was found to be 872 nM; against EP2, 80 nM; at PTGER2 (EP2) it was 106 nM.
For the molecule `CCOc1cc(-c2cc(NCCc3c(OC)ccc4ncccc34)ncn2)ccc1OCC(=O)O` [Example 66, (2-Ethoxy-4-{6-[2-(6-methoxy-quinolin-5-yl)-ethylamino]-pyrimidin-4-yl}-phenoxy)-acetic acid], the IC50 on EP4 was 714 nM; at EP2, 227 nM; on PTGER2 (EP2), 350 nM.
Turning to `CCOc1cc(-c2cc(NCCc3c(C(F)F)ccc4ccccc34)ncn2)sc1C(=O)O` [Example 70, 5-{6-[2-(2-Difluoromethyl-naphthalen-1-yl)-ethylamino]-pyrimidin-4-yl}-3-ethoxy-thiophene-2-carboxylic acid], the IC50 against EP4 turned out to be 368 nM; against EP2, 163 nM; on PTGER2 (EP2) it was 78 nM.
On the same counts, the results for `COc1ccc2ncccc2c1CCNc1cc(-c2ccc(-c3cc(O)no3)cc2)ncn1` [Example 83, 5-(4-{6-[2-(6-Methoxy-quinolin-5-yl)-ethylamino]-pyrimidin-4-yl}-phenyl)-isoxazol-3-ol] are 428 nM, 89 nM and 119 nM.
For `Cc1ccc2cnccc2c1CCNc1cc(-c2ccc(C(=O)O)c(OC3CCC3)c2)ncn1` [Example 84, 2-Cyclobutoxy-4-{6-[2-(6-methyl-isoquinolin-5-yl)-ethylamino]-pyrimidin-4-yl}-benzoic acid], in that order: 989 nM, 179 nM and 149 nM.
On the same counts, the results for `CCOc1cc(-c2cc(NCCc3c(C)ccc4cnccc34)ncn2)ccc1OCC(=O)O` [Example 86, (2-Ethoxy-4-{6-[2-(6-methyl-isoquinolin-5-yl)-ethylamino]-pyrimidin-4-yl}-phenoxy)-acetic acid] are 674 nM, 77 nM and 177 nM.
As for `COc1ccc2c(C)ccnc2c1CCNc1cc(-c2ccc(C(=O)O)c(OC3CCC3)c2)ncn1` [Example 87, 2-Cyclobutoxy-4-{6-[2-(7-methoxy-4-methyl-quinolin-8-yl)-ethylamino]-pyrimidin-4-(C)yl}-benzoic acid], the IC50 is 850 nM at EP4, 103 nM at EP2 and 70 nM on PTGER2 (EP2).
On the same counts, the results for `CCOc1cc(-c2cc(NCCc3c(OC)ccc4ncccc34)ncn2)ccc1NCC(=O)O` [Example 88, (2-Ethoxy-4-{6-[2-(6-methoxy-quinolin-5-yl)-ethylamino]-pyrimidin-4-yl}-phenylamino)-acetic acid] are 645 nM, 155 nM and 94 nM.
On the same counts, the results for `COc1cc(-c2cc(NCCc3c(OC)ccc4ncccc34)ncn2)sc1C1(O)COC1` [Example 89, 3-(3-Methoxy-5-{6-[2-(6-methoxy-quinolin-5-yl)-ethylamino]-pyrimidin-4-yl}-thiophen-2-yl)-oxetan-3-ol] are 878 nM, 197 nM and 178 nM.
For `CCOc1cc(-c2cc(NCCc3c(OC)ccc4ncccc34)ncn2)ccc1O` [Example 90, 2-Ethoxy-4-{6-[2-(6-methoxy-quinolin-5-yl)-ethylamino]-pyrimidin-4-yl}-phenol], in that order: 351 nM, 58 nM and 36 nM.
